Test results reported in patent publication US10253002B2, “Compounds and methods of treating infections” (Neoculi Pty Ltd., priority 2013, dated 2019).
Where “and” joins values, the source holds several entries; their conditions need not be identical. Equal entries are not always repeated.

Key:
[1] = Precipitation of NCL812 in assay media, Examples 2 and 3; assay type: physicochemical
S. pneumoniae strain D39 [2] = test: MBC time kill studies (relative MBC at time points); assay type: cell-based, Streptococcus pneumoniae; settings: within 5 h
Source text: MBC kill kinetics assays involved the preparation of three 96 well microtitre trays.

S. pneumoniae strain D39 [3] = test: Macro-broth dilution time kill studies; assay type: cell-based, Streptococcus pneumoniae
Experimental: Bacterial suspensions and working antibiotic stocks were prepared as described above. [For preparing macro-broth dilutions, 20 mL tubes were filled each with 9 mL of 4% LHB:CAMHB. 9 mL of a working antimicrobial stock was diluted 1:2 when added to one of the tubes, and then serial diluted down from a high to low concentration of antimicrobial. 1 mL of S. pneumoniae bacterial suspension was added to the appropriate tubes, including the positive control. […] At every 2-3 h during the first 12 h of growth and then at 24 h and 48 h, 50 μL of each bacterial suspension was spread plated onto HBA and incubated at 37° C. with 5% CO2 for 16-24 h.]
Table 17 below indicates the concentrations used for each antimicrobial. Cultures were incubated at 37° C. in 5% CO2 with gentle manual tilting every 10 min for the first 12 h. Viable counts from 50 μL aliquots of each concentration were read following incubation at 37° C. in 5% CO2 for 24 h. The pH of each sample was measured at specific time points using pH indicator strips. Confluent growth was defined when more than 1000 colonies were counted per plate. A bactericidal effect was defined as a 1000 fold reduction (99.9%) of the original cell suspension determined at 24 h for each concentration.

[4] = system: D39 cell membrane ultra-structure; test: Transmission electron microscopy morphometric analysis; assay type: cell-based, Streptococcus pneumoniae
Experimental: Morphological appearance and morphometric analysis of the cell membrane was determined using transmission electron microscopy (TEM). Bacterial suspensions and 10 mL cultures of […] were prepared as before. […] Critical time points for TEM work were determined by analysing trends in the growth curves produced from the kill kinetics studies. […] Samples were fixed using modified protocols defined by a previous study examining cell wall ultrastructure of S. pneumoniae ([…]. et al. 2005. Infect Immun 73:4653-4667). […] The samples were then embedded in fresh LR White resin and incubated at 50° C. for 48 h. Sections were cut to 1 μm using a glass knife, stained with Toluidene Blue and viewed under a light microcrope at 400× to identify the presence of stained pneumococci. At least four ultra-thin sections were then cut to 90 nm using a diamond knife and placed on matrix grids, one section per grid. […] Stained sections were then placed on grids and viewed between 25000× and 130000× on a Philips CM100 Transmission Electron Microscope. Images were obtained at 130000× magnification and analysed using analySIS [Olympus Soft Imaging Systems].

[5] = system: non-MRSA S. aureus MK01 and KC01; test: MBC (CLSI methodology), Example 8; assay type: cell-based, Staphylococcus aureus
[6] = system: non-VRE Enterococcus faecalis USA01; test: MBC (CLSI methodology), Example 8; assay type: cell-based; settings: for NCL812 MBC test, growth on Sheep Blood Agar / Number of Bacteria Growing after 24 hours per ml of sample: E. faecalis (USA01)
[7] = Release from Formulation B, Franz diffusion cells; assay type: physicochemical; settings: absolute ethanol receptor, 32±1° C., up to 24 hours
Experimental: Franz diffusion cells were utilized to quantify the release rate of NCL 812 and NCL099 from its topical formulations. Five milliliters of absolute ethanol, which was chosen as the desired release medium, was loaded into the receptor chamber. Temperature of the receptor fluid was kept constant, at 32±1° C. using a water jacket. Acetyl cellulose membranes, with pore size of 0.45 μm (Pall Corporation) was selected and placed between donor and receptor chamber. Followed by that, a number of test samples (Formulation B) was loaded into the donor chamber. One milliliter of receptor fluid was collected at regular time intervals of 0.25, 0.50, 0.75, 1, 2, 3, 4, 5, 6, 7, 8 and 24 hours through the sampling port. One milliliter of fresh absolute ethanol was immediately returned to the receptor chamber. UV-HPLC was utilized to analyse the content of the receptor fluids attained.

[8] = Solubility in DMSO and CAMHB, Example 4
Source text: Test antimicrobials were selected on the basis of solubility and antimicrobial activity from preliminary studies.

Staphylococcus aureus = settings: control strain Staphylococcus aureus ATCC 29213; cited from earlier work

N=C(N/N=C/c1ccc(Cl)cc1)N/N=C/c1ccc(Cl)cc1 [NCL812, 1,3-bis[(E)-(4-chlorophenyl)methyleneamino]guanidine]
Precipitation of NCL812 observed at ([1]; MIC plates prepared identically without inoculum, MHB II): ≥ 8 µg/mL
precipitation observed at ([1]; Mueller Hinton broth II, DNA and RNA synthesis assays): 4 to 8 fold the MIC
decrease in MBC (S. pneumoniae strain D39 [2]): ~3 fold
growth in viable counts (S. pneumoniae strain D39 [3]; 2 μg/mL NCL812): Consistent confluent growth
time post-exposure at which compound appeared to be inactivated (increased growth after) (S. pneumoniae strain D39 [3]; NCL812 at 4 μg/mL and 8 μg/mL): 11 h
time to eliminate bacterial growth (S. pneumoniae strain D39 [3]; between 16 μg/mL and 64 μg/mL NCL812): ≤ 8 h
cell membrane thickness ([4]; D39 exposed to 16 μg/mL NCL812 for 6 h, untreated 4.35±0.24): 6.43±0.29 nm
width of periplasmic space ([4]; D39 treated with 16 μg/mL NCL812 for 6 h, untreated 3.91±0.14): 4.54±0.096 nm
Periplasmic space, Mean ± SEM ([4]; D39 treated with 16 μg/ml NCL812 for 6 h, n = 11, growth control 3.91 ± 0.14 nm): 4.54 ± 0.096 nm,
Cell membrane, Mean ± SEM ([4]; D39 treated with 16 μg/ml NCL812 for 6 h, n = 13, growth control 4.35 ± 0.24 nm): 6.43 ± 0.29 nm,
NCL812 MBC test, growth on Sheep Blood Agar ([5]; S. aureus (KC01), 2 μg/ml): +
NCL812 MBC test, growth on Sheep Blood Agar ([5]; S. aureus (KC01), 4 μg/ml): + and 0
NCL812 MBC test, growth on Sheep Blood Agar ([5]; S. aureus (KC01), 8 μg/ml): + and 0
NCL812 MBC test, growth on Sheep Blood Agar ([5]; S. aureus (KC01), 16 μg/ml): 0
NCL812 MBC test, growth on Sheep Blood Agar ([5]; S. aureus (KC01), 32 μg/ml): 0
NCL812 MBC test, growth on Sheep Blood Agar ([5]; S. aureus (KC01), 64 μg/ml): 0
NCL812 MBC test, growth on Sheep Blood Agar ([5]; S. aureus (KC01), […]): 0
NCL812 MBC test, growth on Sheep Blood Agar ([5]; S. aureus (MK01), 2 μg/ml): 0
Number of Bacteria Growing after 24 hours per ml of sample ([5]; S. aureus (MK01), 2 μg/ml): 5 CFU/ml
NCL812 MBC test, growth on Sheep Blood Agar ([5]; S. aureus (MK01), 4 μg/ml): 0
NCL812 MBC test, growth on Sheep Blood Agar ([5]; S. aureus (MK01), 8 μg/ml): 0
NCL812 MBC test, growth on Sheep Blood Agar ([5]; S. aureus (MK01), 16 μg/ml): 0 (N) and 0
NCL812 MBC test, growth on Sheep Blood Agar ([5]; S. aureus (MK01), 32 μg/ml): 0 (N) and 0
NCL812 MBC test, growth on Sheep Blood Agar ([5]; S. aureus (MK01), 64 μg/ml): 0 (N) and 0
MBC test outcome ([5]; S. aureus MK01 and KC01, no growth, or growth only at 2 μg/ml): bactericidal
NCL812 MBC test, growth on Sheep Blood Agar ([6]; 4 μg/ml): +
Number of Bacteria Growing after 24 hours per ml of sample ([6]; 4 μg/ml): 488 CFU/ml
NCL812 MBC test, growth on Sheep Blood Agar ([6]; 8 μg/ml): +
NCL812 MBC test, growth on Sheep Blood Agar ([6]; 16 μg/ml): +
NCL812 MBC test, growth on Sheep Blood Agar ([6]; 32 μg/ml): +
Number of Bacteria Growing after 24 hours per ml of sample ([6]; 32 μg/ml): 7 CFU/ml
NCL812 MBC test, growth on Sheep Blood Agar ([6]; 64 μg/ml): +
Number of Bacteria Growing after 24 hours per ml of sample ([6]; 64 μg/ml): 1 CFU/ml
NCL812 MBC test, growth on Sheep Blood Agar ([6]; […]): +
MBC test outcome ([6]; E. faecalis USA01): growth of bacteria was observed at all concentrations of NCL812 tested
release profile from Formulation B [7]: acceptable release profile
Solubility CAMHB ([8]; cation-adjusted Mueller-Hinton II broth): Cloudy precipitates
Solubility DMSO ([8]; dimethyl sulfoxide): Good

CC1(C)S[C@@H]2[C@H](NC(=O)[C@H](N)c3ccccc3)C(=O)N2[C@H]1C(=O)O [Ampicillin]
Acceptable MIC range for Ampicillin (Staphylococcus aureus): 0.5 to 2 µg/mL
